Data from patent publication US11717508B2, “Compounds, compositions, and methods for inhibiting bacterial growth” (priority 2016, dated 2023).
Several values for one entry are separate records, joined by “and”; a condition that tells them apart may be missing. Identical values can stand only once. Like-named read-outs stand apart in the source and are kept apart here.

Tested on: DosRST regulon
Assay type: cell-based
Conditions: for Counts per million (CPM) WT_HC103A: replicates 1, 2

O=C(Nc1cccc(O)c1)c1cccc(NC(=O)c2cccs2)c1 [HC103A, N-[3-[(3 hydroxyphenyl)carbamoyl]phenyl]thiophene-2-carboxamide]
genes downregulated by compound (total) (40 μM, 6 days, >2-fold, p<0.05): 90 genes
downregulation of tgs1 gene (transcriptional profiling) (CDC1551, 40 μM, 6 days): ~180 fold
WT DMSO/WT HC103A fold change (gene MT36S5 Rv3551): 0.4042
log2 Fold change (gene MT36S5 Rv3551): −1.307
WT DMSO/WT HC103A fold change (gene MT0086 Rv0079): 0.2341
log2 Fold change (gene MT0086 Rv0079): −2.095
WT DMSO/WT HC103A fold change (gene MT0087 Rv0080): 0.2783
log2 Fold change (gene MT0087 Rv0080): −1.845
WT DMSO/WT HC103A fold change (gene MT0207 Rv0197): 3.65
log2 Fold change (gene MT0207 Rv0197): 1.868
WT DMSO/WT HC103A fold change (gene MT0337 Rv0322 udgA): 2.459
log2 Fold change (gene MT0337 Rv0322 udgA): 1.298
WT DMSO/WT HC103A fold change (gene MT0468 Rv0452): 2.465
log2 Fold change (gene MT0468 Rv0452): 1.301
WT DMSO/WT HC103A fold change (gene MT0491 Rv0474): 2.323
log2 Fold change (gene MT0491 Rv0474): 1.216
WT DMSO/WT HC103A fold change (gene MT0585 Rv0559c): 5.989
log2 Fold change (gene MT0585 Rv0559c): 2.582
WT DMSO/WT HC103A fold change (gene MT0586 Rv0560c): 282
log2 Fold change (gene MT0586 Rv0560c): 8.139
WT DMSO/WT HC103A fold change (gene MT0595 Rv0569): 0.1236
log2 Fold change (gene MT0595 Rv0569): −3.016
WT DMSO/WT HC103A fold change (gene MT0596 Rv0570 nrdZ): 0.02807
log2 Fold change (gene MT0596 Rv0570 nrdZ): −5.155
Counts per million (CPM) WT_HC103A (gene MT0596 Rv0570 nrdZ): 73.81 CPM and 59.09 CPM
WT DMSO/WT HC103A fold change (gene MT0597 Rv0571c): 0.1705
log2 Fold change (gene MT0597 Rv0571c): −2.552
Counts per million (CPM) WT_HC103A (gene MT0597 Rv0571c): 71.16 CPM and 45.13 CPM
WT DMSO/WT HC103A fold change (gene MT0598): 0.1036
log2 Fold change (gene MT0598): −3.27
Counts per million (CPM) WT_HC103A (gene MT0598): 38.26 CPM and 19.74 CPM
WT DMSO/WT HC103A fold change (gene MT0599 Rv0572c): 0.05128
log2 Fold change (gene MT0599 Rv0572c): −4.028
Counts per million (CPM) WT_HC103A (gene MT0599 Rv0572c): 49.68 CPM and 34.61 CPM
WT DMSO/WT HC103A fold change (gene MT0600): 0.02301
log2 Fold change (gene MT0600): −5.442
Counts per million (CPM) WT_HC103A (gene MT0600): 44.59 CPM and 9.221 CPM
WT DMSO/WT HC103A fold change (gene MT0601 Rv0573c): 0.1124
log2 Fold change (gene MT0601 Rv0573c): −3.153
Counts per million (CPM) WT_HC103A (gene MT0601 Rv0573c): 11.49 CPM and 9.546 CPM
WT DMSO/WT HC103A fold change (gene MT0602 Rv0574c): 0.05787
log2 Fold change (gene MT0602 Rv0574c): −4.111
Counts per million (CPM) WT_HC103A (gene MT0602 Rv0574c): 26.39 CPM and 16.69 CPM
WT DMSO/WT HC103A fold change (gene MT0808 Rv0784): 4.409
log2 Fold change (gene MT0808 Rv0784): 2.141
WT DMSO/WT HC103A fold change (gene MT0846 Rv0824c desA1): 0.3753
log2 Fold change (gene MT0846 Rv0824c desA1): −1.414
Counts per million (CPM) WT_HC103A (gene MT0846 Rv0824c desA1): 2,581.69 CPM and 3,416.39 CPM
WT DMSO/WT HC103A fold change (gene MT0910 Rv0887c): 2.543
log2 Fold change (gene MT0910 Rv0887c): 1.346
WT DMSO/WT HC103A fold change (gene MT1095 Rv1065): 0.3758
log2 Fold change (gene MT1095 Rv1065): −1.412
Counts per million (CPM) WT_HC103A (gene MT1095 Rv1065): 198.5 CPM and 168.6 CPM
WT DMSO/WT HC103A fold change (gene MT1126 Rv1094 desA2): 0.3586
log2 Fold change (gene MT1126 Rv1094 desA2): −1.44
Counts per million (CPM) WT_HC103A (gene MT1126 Rv1094 desA2): 2,249.03 CPM and 2,771.69 CPM
WT DMSO/WT HC103A fold change (gene MT1294 Rv1255c): 3.371
log2 Fold change (gene MT1294 Rv1255c): 1.753
WT DMSO/WT HC103A fold change (gene MT1322 Rv1284): 0.3386
log2 Fold change (gene MT1322 Rv1284): −1.562
Counts per million (CPM) WT_HC103A (gene MT1322 Rv1284): 223.7 CPM and 205.3 CPM
WT DMSO/WT HC103A fold change (gene MT1608 Rv1557 mmpL6): 8.81
log2 Fold change (gene MT1608 Rv1557 mmpL6): 3.139
WT DMSO/WT HC103A fold change (gene MT1692 Rv1654 argB): 0.2745
log2 Fold change (gene MT1692 Rv1654 argB): −1.865
Counts per million (CPM) WT_HC103A (gene MT1692 Rv1654 argB): 176.3 CPM and 60.13 CPM
WT DMSO/WT HC103A fold change (gene MT1693 Rv1655 argD): 0.2592
log2 Fold change (gene MT1693 Rv1655 argD): −1.948
Counts per million (CPM) WT_HC103A (gene MT1693 Rv1655 argD): 135.1 CPM and 51.69 CPM
WT DMSO/WT HC103A fold change (gene MT1694 Rv1656 argF): 0.214
log2 Fold change (gene MT1694 Rv1656 argF): −2.224
Counts per million (CPM) WT_HC103A (gene MT1694 Rv1656 argF): 115.2 CPM and 42.01 CPM
WT DMSO/WT HC103A fold change (gene MT1774 Rv1733c): 0.01521
log2 Fold change (gene MT1774 Rv1733c): −6.039
Counts per million (CPM) WT_HC103A (gene MT1774 Rv1733c): 40.51 CPM and 8.961 CPM
WT DMSO/WT HC103A fold change (gene MT1775): 0.1012
log2 Fold change (gene MT1775): −3.305
Counts per million (CPM) WT_HC103A (gene MT1775): 101.9 CPM and 24.16 CPM
WT DMSO/WT HC103A fold change (gene MT1776 Rv1735c): 0.2125
log2 Fold change (gene MT1776 Rv1735c): −2.234
Counts per million (CPM) WT_HC103A (gene MT1776 Rv1735c): 4.991 CPM and 2.922 CPM
WT DMSO/WT HC103A fold change (gene MT1777): 0.02322
log2 Fold change (gene MT1777): −5.428
Counts per million (CPM) WT_HC103A (gene MT1777): 5.142 CPM and 2.013 CPM
WT DMSO/WT HC103A fold change (gene MT1778 Rv1736c narX): 0.0157
log2 Fold change (gene MT1778 Rv1736c narX): −5.993
Counts per million (CPM) WT_HC103A (gene MT1778 Rv1736c narX): 122.3 CPM and 26.17 CPM
WT DMSO/WT HC103A fold change (gene MT1779 Rv1737c narK2): 0.01434
log2 Fold change (gene MT1779 Rv1737c narK2): −6.124
Counts per million (CPM) WT_HC103A (gene MT1779 Rv1737c narK2): 36.9 CPM and 14.55 CPM
WT DMSO/WT HC103A fold change (gene MT1780 Rv1738): 0.01855
log2 Fold change (gene MT1780 Rv1738): −5.752
Counts per million (CPM) WT_HC103A (gene MT1780 Rv1738): 133.5 CPM and 33.12 CPM
WT DMSO/WT HC103A fold change (gene MT1823 (Rv1773c)): 0.36
log2 Fold change (gene MT1823 (Rv1773c)): −1.434
Counts per million (CPM) WT_HC103A (gene MT1823 Rv1773c): 222.7 CPM and 163.7 CPM
WT DMSO/WT HC103A fold change (gene MT1851 Rv1813c): 0.01771
log2 Fold change (gene MT1851 Rv1813c): −5.819
Counts per million (CPM) WT_HC103A (gene MT1851 Rv1813c): 58.53 CPM and 24.74 CPM
WT DMSO/WT HC103A fold change (gene MT1860 Rv1812c): 0.3778
log2 Fold change (gene MT1860 Rv1812c): −1.404
Counts per million (CPM) WT_HC103A (gene MT1860 Rv1812c): 78.19 CPM and 78.7 CPM
WT DMSO/WT HC103A fold change (gene MT1882 (Rv1834)): 0.3504
log2 Fold change (gene MT1882 (Rv1834)): −1.472
Counts per million (CPM) WT_HC103A (gene MT1882 Rv1834): 28.36 CPM and 29.22 CPM
WT DMSO/WT HC103A fold change (gene MT1986 (Rv1936)): 0.2546
log2 Fold change (gene MT1986 (Rv1936)): −1.918
Counts per million (CPM) WT_HC103A (gene MT1986 Rv1936): 72.29 CPM and 31.56 CPM
WT DMSO/WT HC103A fold change (gene MT1987 (Rv1937)): 0.2435
log2 Fold change (gene MT1987 (Rv1937)): −2.038
Counts per million (CPM) WT_HC103A (gene MT1987 Rv1937): 83.71 CPM and 36.75 CPM
WT DMSO/WT HC103A fold change (gene MT1988 Rv1938 ephB): 0.2508
log2 Fold change (gene MT1988 Rv1938 ephB): −1.995
Counts per million (CPM) WT_HC103A (gene MT1988 Rv1938 ephB): 32.14 CPM and 15.97 CPM
WT DMSO/WT HC103A fold change (gene MT1989 (Rv1939)): 0.2883
log2 Fold change (gene MT1989 (Rv1939)): −1.794
Counts per million (CPM) WT_HC103A (gene MT1989 Rv1939): 16.33 CPM and 8.831 CPM
WT DMSO/WT HC103A fold change (gene MT2016 (Rv1964)): 0.2736
log2 Fold change (gene MT2016 (Rv1964)): −1.87
Counts per million (CPM) WT_HC103A (gene MT2016 Rv1964): 93.32 CPM and 56.95 CPM
WT DMSO/WT HC103A fold change (gene MT2017): 0.1841
log2 Fold change (gene MT2017): −2.441
Counts per million (CPM) WT_HC103A (gene MT2017): 44.46 CPM and 29.87 CPM
WT DMSO/WT HC103A fold change (gene MT2018 (Rv1966 mce3)): 0.194
log2 Fold change (gene MT2018 (Rv1966 mce3)): −2.366
Counts per million (CPM) WT_HC103A (gene MT2018 Rv1966 mce3): 54.83 CPM and 33.77 CPM
